Earlier results, collected in patent US20070042999A1, “Phosphate derivatives of pharmaceutical products” (priority 2003, published 2007).

How the values were obtained:
[1] = in vivo
[2] = administered orally

| SMILES | bioavailability [1] | fraction of the administered dose available in the active form [2] |
| --- | --- | --- |
| N[C@@H](Cc1cc(I)c(Oc2cc(I)c(O)c(I)c2)c(I)c1)C(=O)O [Thyroxine, thyroxine] | 50-80% | – |
| C[C@]12CC[C@H]3[C@@H](CCC4=CC(=O)CC[C@@]43C)[C@@H]1CC[C@@H]2O [testosterone] | – | less than one sixth |
